# In ChEMBL document CHEMBL1201862, “PubChem BioAssay data set” (2004):
#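 Five compound concentrations were applied to cells in 96-well plates for 48 hours; endpoints were derived by simple linear interpolation of the resulting dose-response curve. Here, GI50 denotes the concentration required for 50% inhibition of growth.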 Active and inactive are the calls of the source. Rule as the data show it: active = GI50 up to about 1.1 µM and inactive = higher.
# Experiments:
# Experiment in all cases: NCI anticancer screen, dose series, 48 h
# [1] = tested on: CAKI-1
# [2] = tested on: HCT-116
# [3] = tested on: HL-60
# [4] = tested on: KM12
# [5] = tested on: MOLT-4
# [6] = tested on: Malme-3M
# [7] = tested on: OVCAR-3
# [8] = tested on: OVCAR-5
# [9] = tested on: RPMI-8226
# [10] = tested on: SF-268
# [11] = tested on: SF-539
# [12] = tested on: SNB-19
# [13] = tested on: SR
# [14] = tested on: SW-620
# [15] = tested on: SK-MEL-5
# [16] = tested on: DU-145
# [17] = tested on: Hs-578T
# [18] = tested on: NCI/ADR-RES
# [19] = tested on: T47D
Compound,GI50 [1],GI50 [2],GI50 [3],GI50 [4],GI50 [5],GI50 [6],GI50 [7],GI50 [8],GI50 [9],GI50 [10],GI50 [11],GI50 [12],GI50 [13],GI50 [14],GI50 [15],GI50 [16],GI50 [17],GI50 [18],GI50 [19]
CCOC(=O)c1cc(-c2ccc(-c3cc(C(=O)OCC)c(C#N)c(N)c3C#N)cc2)c(C#N)c(N)c1C#N,> 100 µM (inactive),> 100 µM (inactive),> 100 µM (inactive),> 100 µM (inactive),> 100 µM (inactive),> 100 µM (inactive),> 100 µM (inactive),> 100 µM (inactive),> 100 µM (inactive),> 100 µM (inactive),> 100 µM (inactive),> 100 µM (inactive),> 100 µM (inactive),> 100 µM (inactive),–,–,–,–,–
O=C(O/N=C1/CCC/C1=C\c1ccccc1)c1ccccc1,> 100 µM (inactive),> 100 µM (inactive),37.8 µM (inactive),> 100 µM (inactive),27.4 µM (inactive),> 100 µM (inactive),> 100 µM (inactive),> 100 µM (inactive),50.5 µM (inactive),38.7 µM (inactive),> 100 µM (inactive),–,44.4 µM (inactive),> 100 µM (inactive),44.6 µM (inactive),–,–,–,–
NC(=S)N/N=C/C(O[C@@H](/C=N/NC(N)=S)CO)n1cnc2c(N)ncnc21 (stereo partly drawn),> 100 µM (inactive),24.4 µM (inactive),67 µM (inactive),> 100 µM (inactive),50.7 µM (inactive),> 100 µM (inactive),> 55.3 µM (inactive),> 100 µM (inactive),> 45 µM (inactive),> 85.5 µM (inactive),> 100 µM (inactive),> 100 µM (inactive),> 100 µM (inactive),> 38 µM (inactive),44.6 µM (inactive),–,–,–,–
CCCC(=O)Oc1ccc2c(C)cc(=O)oc2c1OC(=O)CCC,–,39.6 µM (inactive),–,75.3 µM (inactive),50 µM (inactive),24.3 µM (inactive),32.4 µM (inactive),> 100 µM (inactive),26.4 µM (inactive),46.2 µM (inactive),> 100 µM (inactive),> 100 µM (inactive),48.4 µM (inactive),40.1 µM (inactive),56 µM (inactive),50.4 µM (inactive),56.6 µM (inactive),33.2 µM (inactive),–
CCC(=O)C1(N2CCOCC2)CCN(CCCC(=O)c2ccc(F)cc2)CC1,> 100 µM (inactive),> 100 µM (inactive),> 100 µM (inactive),> 100 µM (inactive),> 100 µM (inactive),> 100 µM (inactive),> 100 µM (inactive),> 100 µM (inactive),> 100 µM (inactive),> 100 µM (inactive),> 100 µM (inactive),> 100 µM (inactive),–,> 100 µM (inactive),> 100 µM (inactive),> 100 µM (inactive),> 100 µM (inactive),> 100 µM (inactive),> 100 µM (inactive)
CCC12CCCN(Cc3ccccc3)C1c1c(n(C)c3ccccc13)CC2 (stereo not drawn),> 253 µM (inactive),141 µM (inactive),106 µM (inactive),86.1 µM (inactive),101 µM (inactive),> 253 µM (inactive),60.8 µM (inactive),–,92.7 µM (inactive),199 µM (inactive),> 253 µM (inactive),> 253 µM (inactive),108 µM (inactive),178 µM (inactive),69.3 µM (inactive),–,–,–,–
CN(C)C(=S)N=C(Nc1ccccc1)Nc1ccccc1,> 100 µM (inactive),> 100 µM (inactive),> 100 µM (inactive),> 100 µM (inactive),> 100 µM (inactive),> 100 µM (inactive),> 100 µM (inactive),> 100 µM (inactive),> 100 µM (inactive),> 100 µM (inactive),> 100 µM (inactive),> 100 µM (inactive),> 100 µM (inactive),> 100 µM (inactive),> 100 µM (inactive),–,–,–,–
CN1CCN=C1c1nnn(-c2ccc([N+](=O)[O-])cc2)c1-c1ccccc1,> 100 µM (inactive),> 100 µM (inactive),18.8 µM (inactive),> 100 µM (inactive),> 100 µM (inactive),> 100 µM (inactive),> 100 µM (inactive),> 100 µM (inactive),–,> 100 µM (inactive),> 100 µM (inactive),> 100 µM (inactive),> 100 µM (inactive),26.5 µM (inactive),> 100 µM (inactive),–,–,–,–
CN(C(=O)C1=CCCCCC1)c1ccccc1I,64.4 µM (inactive),25.9 µM (inactive),13.7 µM (inactive),19.1 µM (inactive),49.3 µM (inactive),–,49.7 µM (inactive),> 100 µM (inactive),35.5 µM (inactive),24.3 µM (inactive),–,62.5 µM (inactive),39 µM (inactive),40.6 µM (inactive),23.6 µM (inactive),50.7 µM (inactive),1.27 µM (inactive),25.6 µM (inactive),23.7 µM (inactive)
COc1cc([C@@H]2c3cc4c(cc3[C@@H](NCc3ccccc3)C3COC(=O)[C@@H]32)OCO4)cc(OC)c1O (stereo partly drawn),2.24 µM (inactive),14 µM (inactive),2.74 µM (inactive),12.8 µM (inactive),0.891 µM (active),11.2 µM (inactive),17.8 µM (inactive),29 µM (inactive),3.8 µM (inactive),7.19 µM (inactive),6 µM (inactive),4.86 µM (inactive),0.345 µM (active),8.57 µM (inactive),11.8 µM (inactive),–,–,–,–
O=[N+]([O-])c1ccc(Sc2c3ccccc3nc3cc(Cl)ccc23)cc1,> 10 µM (inactive),> 10 µM (inactive),40.9 µM (inactive),> 10 µM (inactive),34.4 µM (inactive),> 10 µM (inactive),> 10 µM (inactive),> 10 µM (inactive),> 100 µM (inactive),> 10 µM (inactive),> 10 µM (inactive),> 10 µM (inactive),25.7 µM (inactive),> 10 µM (inactive),> 10 µM (inactive),–,–,–,–
COc1cc2cnc3c4cc(OCc5ccccc5)ccc4ccc3c2cc1OC,26.7 µM (inactive),45.8 µM (inactive),1.66 µM (inactive),29.8 µM (inactive),5.06 µM (inactive),36.3 µM (inactive),40.6 µM (inactive),> 100 µM (inactive),2.96 µM (inactive),19.4 µM (inactive),34 µM (inactive),34.8 µM (inactive),4.5 µM (inactive),54.3 µM (inactive),17.4 µM (inactive),–,–,–,–
CC(=O)N1C/C(=C\c2ccccc2)C(=O)/C(=C/c2ccccc2)C1,17.6 µM (inactive),2.51 µM (inactive),1.68 µM (inactive),3.65 µM (inactive),4.2 µM (inactive),18.3 µM (inactive),6.43 µM (inactive),19.4 µM (inactive),0.415 µM (active),23.2 µM (inactive),19.3 µM (inactive),16.8 µM (inactive),2.99 µM (inactive),2.67 µM (inactive),6.19 µM (inactive),–,–,–,–
NC(=O)c1cn(C2OC(CO)C(O)C2O)c(=O)[nH]c1=O (stereo not drawn),> 100 µM (inactive),> 100 µM (inactive),> 100 µM (inactive),> 100 µM (inactive),> 100 µM (inactive),–,> 100 µM (inactive),> 100 µM (inactive),> 100 µM (inactive),> 100 µM (inactive),> 100 µM (inactive),–,> 100 µM (inactive),> 100 µM (inactive),> 100 µM (inactive),–,–,–,–
CC(N)CC(=O)O (stereo not drawn),–,> 5000 µM (inactive),> 5000 µM (inactive),> 5000 µM (inactive),> 5000 µM (inactive),> 5000 µM (inactive),> 5000 µM (inactive),> 5000 µM (inactive),> 5000 µM (inactive),> 5000 µM (inactive),> 5000 µM (inactive),–,> 5000 µM (inactive),> 5000 µM (inactive),> 5000 µM (inactive),–,–,–,–
CN(NC(=O)/C(=C\c1ccco1)NC(=O)c1ccccc1)c1cn[nH]c(=O)c1Cl,> 100 µM (inactive),51.5 µM (inactive),–,40.6 µM (inactive),29.6 µM (inactive),39.3 µM (inactive),27.9 µM (inactive),> 100 µM (inactive),21.1 µM (inactive),> 100 µM (inactive),24.9 µM (inactive),97.9 µM (inactive),29.9 µM (inactive),45.9 µM (inactive),29.7 µM (inactive),> 100 µM (inactive),52.1 µM (inactive),50.2 µM (inactive),–
CC(=O)[O-].[Zn+].c1ccc(/C(=N\Nc2ccccn2)c2ccccn2)cc1,0.119 µM (active),0.005 µM (active),0.00121 µM (active),0.356 µM (active),0.000773 µM (active),0.124 µM (active),0.0015 µM (active),0.025 µM (active),0.01 µM (active),0.277 µM (active),0.337 µM (active),1.06 µM (active),–,0.0676 µM (active),0.0684 µM (active),0.458 µM (active),0.931 µM (active),0.0303 µM (active),0.00206 µM (active)
CO[C@H](C(=O)O[C@H]1C(=O)N2CCC3CCC1C32C)c1ccccc1 (stereo partly drawn),> 100 µM (inactive),> 100 µM (inactive),> 100 µM (inactive),> 100 µM (inactive),> 100 µM (inactive),> 100 µM (inactive),> 100 µM (inactive),> 100 µM (inactive),> 100 µM (inactive),> 100 µM (inactive),> 100 µM (inactive),> 100 µM (inactive),> 100 µM (inactive),> 100 µM (inactive),> 100 µM (inactive),–,–,–,–
